# From US20140323500A1, “NADPH OXIDASE 4 INHIBITORS AND USE THEREOF” (GENKYOTEX SA, priority 2011, published 2014)
# System: female mice subjected to ovariectomy
# Assay: Ovariectomy-induced osteoporosis (bone loss) in mice
# Type: in vivo
# Method: BMD of the left femur was measured by peripheral quantitative computed tomography (QCT) using an XCT Research QCT machine (Stratec Medizintechnik, Pforzheim, Germany). One slice (0.2 mm thick) in the mid-diaphysis of the femur and 3 slices in the distal femoral metaphysis located 1.5, 2, and 2.5 mm proximal to the articular surface of the knee joint were measured. BMD values of the distal femoral metaphysic were calculated as the mean of 3 slices. A voxel size of 0.070 mm and a threshold of 710 mg/cm^3 were used for calculation of BMD as described in Hofbauer et al., 2009, Arthritis Rheum., 60(5):1427-1437.
# The control group received daily gavages by the solvent.
# To study the latter effect, female mice were subjected to ovariectomy to induce osteoporosis and the effect of pharmacological inhibition of Nox4 with a Nox4 inhibitor as well as acute genetic knockout of the protein was studied. For this, mice were subjected to ovariectomy 8 weeks after birth and treatment at 60 mg/kg with a Nox4 inhibitor of the invention was started 2 days after the operation and continued throughout the study (6 weeks).
# 3, Hamburg was used which completely blocks osteoclast activity. […] For this, bones were scanned with a skyscan 1176 and bone density was analysed with the integrated software using two phantoms with 0.25 g/cm^3 and 0.75 g/cm^3 as reference. A 2 mm portion of the femur from the tibia plateau was analysed for total and trabecular bone density by the software provided by the manufacturer of the machine. […] For this method, the femurs were loaded to failure by 3-point bending tests using a Zwick Z020/TN2A materials testing machine (Zwick, Ulm, Germany) with a 1 kN force detector, and a force resolution of 0.01N. The distance between the lower supports for the bending tests was 5 mm. Crosshead speed during testing was 0.2 mm/minute for all measurements. From the force-displacement data, ultimate force (Fmax; in N) was calculated.
smiles,measurement,setting,value
"COc1ccc(-c2c3c(=O)n(-c4ccccc4OC)[nH]c3cc(=O)n2Cc2cccnc2)c(F)c1 [Compound (1), 4-(2-fluoro-4-methoxyphenyl)-2-(2-methoxyphenyl)-5-(pyridin-3-ylmethyl)-1H-pyrazolo[4,3-c]pyridine-3,6(2H,5H)-dione]",absolute bone density (total),"distal femur 6 weeks after ovariectomy, compound 1 at 20 and 60 mg/kg, pamidronat 10 mg/kg once a week, microCT, FIG. 6A",increased absolute bone density
same,absolute trabecular bone density,"distal femur 6 weeks after ovariectomy, compound 1 at 20 and 60 mg/kg, pamidronat 10 mg/kg once a week, microCT, FIG. 6B",increased
same,relative inhibition of ovarectomy-induced total bone loss,"distal femur 6 weeks after ovariectomy, compound 1 at 20 and 60 mg/kg, pamidronat 10 mg/kg once a week, microCT, FIG. 6C",~50%
same,relative inhibition of trabecular bone loss,"distal femur 6 weeks after ovariectomy, compound 1 at 20 and 60 mg/kg, pamidronat 10 mg/kg once a week, microCT, FIG. 6D",approximately 60%
same,bone breaking strength (3-point breaking test),"highest concentration (of 20 and 60 mg/kg), femur, 6 weeks after ovariectomy, FIG. 6E",significant increase in bone breaking strength
